The results in this text go back to US20240325544A1, “CATIONIC LIPID FOR COVALENT MODIFICATION OF PEPTIDES” (PharmalN Corporation, priority 2023, published 2024).

Marks after values point to notes of the source that are not given here. Bridge positions count the residues as written; N and C are the ends. Square brackets hold non-standard residues; d marks the D form. Peptide text beside a SMILES is read from it. * marks the point of attachment. C18 diacid = O=C(O)CCCCCCCCCCCCCCCCC(=O)*; Palmitoyl = CCCCCCCCCCCCCCCC(=O)*; Dab = NCC[C@H](N)C(=O)O; Dap = NC[C@H](N)C(=O)O; AEEA = NCCOCCOCC(=O)O

One series relates to cGMP. As to the kind of experiment: Plasma cGMP after SC bolus of natriuretic peptides in CD-1 mice (pharmacodynamics, Table 3). It counts as in vivo. The settings on record: SC bolus 1.0 mg/kg (≤0.45 μmol/kg), baseline 10 +/−8 pmol/ml, n = 3-5. On the procedure:
(§1) The test articles were formulated or dissolved in sterile water for injection on the same day of administration. […] Blood samples were collected via retro-orbital bleed at 2- and 6-hours post-injection, with two bleedings per animal at two different timepoints. The samples were collected in K2EDTA tubes, processed by centrifugation (2000×g; 15 m 4 eC within 30 minutes after collection), and the resulting plasma samples were stored at −80° C. Biochemical analysis: The plasma concentration of the respective natriuretic peptide was analyzed using commercially available ELISA kits from Phoenix Pharmaceuticals (Burlingame, CA): ANP ELISA (cat #EKE-005-06), BNP ELISA (cat #EKE-011-03), and CNP ELISA (cat #EKE-012-03). […] Plasma cGMP was analyzed using a commercially available kit from Abcam (ab133052, Waltham, MA).

The nature of series [1]: Plasma concentration of respective natriuretic peptide by ELISA after SC bolus in CD-1 mice (pharmacokinetics, Table 3). The settings on record: male, CD-1, mouse, in vivo, sc, 1 mg/kg. The procedure:
as §1
On the technique in general: In an ELISA, binding on a coated surface is turned into a signal by an enzyme label.

On to `CCCCCCCCCCCCCCCC(=O)N[C@@H](CCC(=O)O)C(=O)NCCOCCOCC(=O)NCCOCCOCC(=O)N[C@@H](CCN)C(=O)N[C@@H](CCN)C(=O)NCC(=O)N[C@@H](CC(C)C)C(=O)N[C@@H](CO)C(=O)N[C@@H](CCCCN)C(=O)NCC(=O)N[C@H]1CSSC[C@@H](C(=O)O)NC(=O)CNC(=O)[C@H](CC(C)C)NC(=O)CNC(=O)[C@H](CO)NC(=O)[C@H](CCC(N)=O)NC(=O)[C@H](CO)NC(=O)CNC(=O)[C@H]([C@@H](C)CC)NC(=O)[C@H](CCCNC(=N)N)NC(=O)[C@H](CC(=O)O)NC(=O)[C@H](CC(C)C)NC(=O)[C@H](CCCCN)NC(=O)[C@H](CC(C)C)NC(=O)CNC(=O)[C@H](Cc2ccccc2)NC1=O` [SEQ ID NO: 38] (Palmitoyl-E[AEEA][AEEA][Dab][Dab]GLSKGCFGLKLDRIGSQSGLGC-OH; disulfide 11-27; C-terminus assumed), for which, in the series with cGMP, the “Plasma concentration of cGMP, 2 hr” value was 74.69* pmol/mL and the “Plasma concentration of cGMP, 6 hr” value is 38.95*** pmol/mL. In series [1], this compound registered a level at 2 h of 0.0317 µg/mL and a level at 6 h of 0.0259 µg/mL.

Turning to `CC[C@H](C)[C@@H]1NC(=O)[C@H](CCCNC(=N)N)NC(=O)[C@H](CC(=O)O)NC(=O)[C@H](CC(C)C)NC(=O)[C@H](CCCCN)NC(=O)[C@H](CC(C)C)NC(=O)CNC(=O)[C@H](Cc2ccccc2)NC(=O)[C@@H](NC(=O)CNC(=O)[C@H](CCCCN)NC(=O)[C@H](CO)NC(=O)[C@H](CC(C)C)NC(=O)CNC(=O)[C@H](CN)NC(=O)[C@H](CN)NC(=O)COCCOCCNC(=O)COCCOCCNC(=O)COCCOCCNC(=O)CCCCCCCCCCCCCCCCC(=O)O)CSSC[C@@H](C(=O)O)NC(=O)CNC(=O)[C@H](CC(C)C)NC(=O)CNC(=O)[C@H](CO)NC(=O)[C@H](CCC(N)=O)NC(=O)[C@H](CO)NC(=O)CNC1=O` [SEQ ID NO: 39] ({C18 diacid-AEEA-AEEA-AEEA}-[Dap][Dap]GLSKGCFGLKLDRIGSQSGLGC-OH; disulfide 8-24; C-terminus assumed), in the series with cGMP, the “Plasma concentration of cGMP, 2 hr” value is 13.29 pmol/mL and the “Plasma concentration of cGMP, 6 hr” value is 43.60 pmol/mL. Moreover, in series [1], the level at 2 h turned out to be 0.0507 µg/mL and the level at 6 h was found to be 0.0237 µg/mL.

On to `CCCCCCCCCCCCCCCC(=O)NCCOCCOCC(=O)NCCOCCOCC(=O)NCCOCCOCC(=O)N[C@@H](CCN)C(=O)NCC(=O)N[C@@H](CC(C)C)C(=O)N[C@@H](CO)C(=O)N[C@@H](CCCCN)C(=O)NCC(=O)N[C@H]1CSSC[C@@H](C(=O)O)NC(=O)CNC(=O)[C@H](CC(C)C)NC(=O)CNC(=O)[C@H](CO)NC(=O)[C@H](CCC(N)=O)NC(=O)[C@H](CO)NC(=O)CNC(=O)[C@H]([C@@H](C)CC)NC(=O)[C@H](CCCNC(=N)N)NC(=O)[C@H](CC(=O)O)NC(=O)[C@H](CC(C)C)NC(=O)[C@H](CCCCN)NC(=O)[C@H](CC(C)C)NC(=O)CNC(=O)[C@H](Cc2ccccc2)NC1=O` [SEQ ID NO: 41] ({Palmitoyl-AEEA-AEEA-AEEA}-[Dab]GLSKGCFGLKLDRIGSQSGLGC-OH; disulfide 7-23; C-terminus assumed), for which, in the series with cGMP, the “Plasma concentration of cGMP, 2 hr” value was 124.77*** pmol/mL and the “Plasma concentration of cGMP, 6 hr” value was 67.78**** pmol/mL. In series [1], this compound displayed a level at 2 h of 0.0267 µg/mL and a level at 6 h of 0.0301 µg/mL.

`CCCCCCCCCCCCCCCC(=O)NCCOCCOCC(=O)NCCOCCOCC(=O)NCCOCCOCC(=O)N[C@@H](CN)C(=O)NCC(=O)N[C@@H](CC(C)C)C(=O)N[C@@H](CO)C(=O)N[C@@H](CCCCN)C(=O)NCC(=O)N[C@H]1CSSC[C@@H](C(=O)O)NC(=O)CNC(=O)[C@H](CC(C)C)NC(=O)CNC(=O)[C@H](CO)NC(=O)[C@H](CCC(N)=O)NC(=O)[C@H](CO)NC(=O)CNC(=O)[C@H]([C@@H](C)CC)NC(=O)[C@H](CCCNC(=N)N)NC(=O)[C@H](CC(=O)O)NC(=O)[C@H](CC(C)C)NC(=O)[C@H](CCCCN)NC(=O)[C@H](CC(C)C)NC(=O)CNC(=O)[C@H](Cc2ccccc2)NC1=O` [SEQ ID NO: 42] ({Palmitoyl-AEEA-AEEA-AEEA}-[Dap]GLSKGCFGLKLDRIGSQSGLGC-OH; disulfide 7-23; C-terminus assumed): in the series with cGMP, the “Plasma concentration of cGMP, 2 hr” value was 110.21*** pmol/mL and the “Plasma concentration of cGMP, 6 hr” value is on record as 46.90** pmol/mL. In series [1], this compound gave a level at 2 h of 0.0261 µg/mL and a level at 6 h of 0.025 µg/mL.
